The data set in a line: GHS categories as the set defines them, by LD50: 1 up to 5, 2 up to 50, 3 up to 300, 4 up to 2000, 5 above 2000 mg/kg. Particulars: rat; in vivo; po.

`CCOC(=O)C(F)C(C)=O` (centres undefined) yielded a GHS category of 3.
`CC(C)C1C=C2CCC3C(C)(CO)CCCC3(C)C2CC1` (centres undefined) showed a GHS category of 5.
`CCCCCC(=O)OCCCC` showed a GHS category of 5.
With `CCCC(=O)O[C@H]1[C@H](C)O[C@@H](O[C@H]2[C@H](N(C)C)[C@@H](O)[C@H](O[C@H]3[C@@H](CC=O)C[C@@H](C)[C@@H](O)/C=C/C=C/C[C@@H](C)OC(=O)C[C@@H](O)[C@@H]3OC)O[C@@H]2C)C[C@@]1(C)OC(=O)CC` the figure was 5.
With `CCCCCCCCCC(=O)Nc1ccc(Cc2ccccn2)c([N+](=O)[O-])c1` the figure was 3; with `Cc1cc(C)c(O)c(-c2cc(C)cc(C)c2O)c1`, 5; with `OC1(c2cccs2)c2ccccc2C2=NCCN21` (centres undefined), 4.
With `CC(C)CC1(C)OCC(CO)O1` (centres undefined) the figure was 5; with `CC(C)(CO)CO`, 5; with `Cc1nc(N)sc1C(=O)NCc1ccccc1`, 4.
For the compound `CCCCCCCCCCCCCO[PH](=O)OCCCCCCCCCCCCC`, the GHS category was found to be 5.
With `CCCCCCCCCCSCCN1CCCC1=O` the figure was 5.
The compound `COC(=O)C(C)O` (centres undefined) showed a GHS category of 5.
Take `O=NNC1=NCCN1Cc1ccc(Cl)nc1`: the GHS category was found to be 5.
With `C=C(CC)CCCC(C)(C)OC(C)=O` the figure was 5; with `Cc1ncc(COP(=O)(O)O)c(CN)c1O`, 5.
With `Cc1cc(CCC(=O)OCCOCCOCCOC(=O)CCc2cc(C)c(O)c(C(C)(C)C)c2)cc(C(C)(C)C)c1O` the figure was 5.
With `CC1CC(OC(=O)C(Oc2ccc(Cl)cc2)C(C)C)CC(C)(C)C1` (centres undefined) the figure was 5.
Compound `CCCCCCCCCCCCCCCC(=O)OC` showed a GHS category of 5.
With `CCCC(C)O` (centres undefined) the figure was 5; with `CCCCCCC(O)CCO` (centres undefined), 5.
With `O=C(Nc1ccc(Cl)cc1)NS(=O)(=O)c1ccc2c(c1)CCC2` the figure was 4; with `CCCCCCCCCCCCCCCCNP1(=S)OCc2cc([N+](=O)[O-])ccc2O1` (centres undefined), 3.
With `Cc1cc(C)cc(N2C(=O)c3ccc4c5ccc6c7c(ccc(c8ccc(c3c48)C2=O)c75)C(=O)N(c2cc(C)cc(C)c2)C6=O)c1` the figure was 5; with `Cc1c(Cl)ccc(OC(C)C(O)=Nc2ccccc2)c1Cl` (centres undefined), 5.
The compound `CCCCCCCCCCCCCCCCCC(=O)OCC(COC(=O)CCCCCCCCCCCCCCCCC)OC(=O)CCCCCCCCCCCCCCCCC` had a GHS category of 5.
With `CC1(C)[C@@H](O[C@H]2O[C@H](C(=O)O)[C@@H](O)[C@H](O)[C@H]2O[C@@H]2O[C@H](C(=O)O)[C@@H](O)[C@H](O)[C@H]2O)CC[C@]2(C)[C@H]3C(=O)C=C4[C@@H]5C[C@@](C)(C(=O)O)CC[C@]5(C)CC[C@@]4(C)[C@]3(C)CC[C@@H]12` the figure was 5; with `Nc1ccc2oc(N)nc2c1`, 4.
`CCOc1ccc(C(=O)NCc2ccc(OCCNC)cc2)cc1OCC` yielded a GHS category of 5.
With `O=C[C@H](O)[C@@H](O)[C@H](O)[C@H](O)CO[C@H]1O[C@H](CO[C@H]2O[C@H](CO)[C@@H](O)[C@H](O)[C@H]2O)[C@@H](O)[C@H](O)[C@H]1O` the figure was 5; with `O=[N+]([O-])c1ccc2nc[nH]c2c1`, 4; with `Cc1ccc(Nc2nc(Nc3ccc(C)cc3)c(N=Nc3ccccc3C(F)(F)F)c(C)c2C#N)cc1`, 5.
Turning to `CC(C)(c1cc(Br)c(O)c(Br)c1)c1cc(Br)c(O)c(Br)c1`, the GHS category is given as 5.
With `CCC(C#N)(CCN(CC=C(C)C)CC=C(C)C)c1cccc2ccccc12` (centres undefined) the figure was 4; with `C=CCOc1c(Br)cc(C(C)(C)c2cc(Br)c(OCC=C)c(Br)c2)cc1Br`, 5; with `COc1cc([N+](=O)[O-])ccc1N=NC(C(C)=O)C(=O)Nc1cc(Cl)ccc1OC` (centres undefined), 5.
`c1ccc(OCC2COC(Cn3cncn3)(c3cc4ccccc4o3)O2)cc1` (centres undefined) showed a GHS category of 4.
With `O=C(c1ccc(Oc2ccccc2)cc1)c1ccc(C(=O)c2ccc(Oc3ccccc3)cc2)cc1` the figure was 5; with `O=C(O)CC(=O)C(=O)O`, 5; with `COC(=O)CBr`, 3.
With `NC(=O)Oc1ccccc1C(=O)Oc1ccccc1Cl` the figure was 5.
`CCOc1ccccc1NC(=O)C(=O)Nc1ccccc1CC` displayed a GHS category of 5.
With `COC(=O)CCC(=O)OC` the figure was 5; with `Fc1ccc(N/C(=N/C2CCCCC2)c2ccccc2)cc1`, 5.
With `COC12CC(COC3=CC(=O)CC3)CN(C)C1Cc1cn(C(C)(C)C)c3cccc2c13` (centres undefined) the figure was 4; with `CC1OC(OC2C(OC(=O)C=Cc3ccc(O)c(O)c3)C(CO)OC3OCC(c4ccc(O)c(O)c4)OC32)C(O)C(O)C1O` (centres undefined), 5; with `N#CNC(=N)NCCCCCCNC(=N)NC#N`, 5.
`CC(=O)OCC1=CC[C@@]23C[C@@H]1C(C)(C)[C@@H]2CC[C@H]3C` came in with a GHS category of 5.
With `CCCCCCOC(=O)CC` the figure was 5; with `Nc1ccc(CCc2ccc(N)cc2)cc1`, 5.
For the compound `O=c1cc[nH]c(=O)[nH]1`, the GHS category came out at 5.
With `COC(=O)COc1nc(F)c(Cl)c(N)c1Cl` the figure was 5.
With `CN1CC(c2ccnn2-c2ccccc2)CC2c3cccc4[nH]cc(c34)CC21` (centres undefined) the figure was 4.
With `CCOC(=O)C(=O)Nc1cc(SCCOC)ncn1` the figure was 4.
Regarding `O=C(Cc1cccs1)N[C@@H]1C(=O)N2C(C(=O)O)=C(CO)CS[C@H]12`, the GHS category amounted to 5.
With `CC(CO)COC1CC2CCC1(C)C2(C)C` (centres undefined) the figure was 5; with `Cc1ccc(C(C)C)c(OC(=O)c2ccccc2Nc2cccc(C)c2C)c1`, 5; with `CCCc1c(Cc2ccc(-c3ccccc3-c3nn[nH]n3)cc2)c(OCCOC)nc2ncnn12`, 4.
Compound `CC(C)CCOC(=O)C=Cc1ccccc1` displayed a GHS category of 5.
On to `CC(=O)OC1CCCCC1C` (centres undefined), for which the GHS category is 5.
With `CNC(=O)C(=NNc1ccccc1)C(C)=O` the figure was 5; with `O=C1CC(Nc2ccc([N+](=O)[O-])cc2)=NN1c1c(Cl)cc(Cl)cc1Cl`, 5; with `CC(=O)O[C@]1(C(C)=O)CC[C@H]2[C@@H]3C=C(Cl)C4=CC(=O)[C@@H]5C[C@@H]5[C@]4(C)[C@H]3CC[C@@]21C`, 5.
For the compound `CC1=NN(c2cccc(S(=O)(=O)O)c2)C(=O)C1/N=N/c1cc(Cl)c(C)cc1S(=O)(=O)O` (centres undefined), the GHS category amounted to 5.
On to `CCC1(c2ccccc2O)NC(=O)NC1=O` (centres undefined), for which the GHS category is reported as 5.
With `CCN(C(=O)CCCCc1nnnn1-c1ccccc1)C1CCCCC1` the figure was 4; with `O=C1c2c(Cl)c(Cl)c(Cl)c(Cl)c2C2=Nc3cccc4cccc(c34)N12`, 5.
With `COc1ccc2c(c1)CCN(c1ccccc1)C2c1ccc(OCc2ccccc2)cc1` (centres undefined) the figure was 4; with `CC(=O)OC1C(N2CCCC2)CC2C3CCC4CC(O)C(N5CCOCC5)CC4(C)C3CCC21C` (centres undefined), 5.

The record behind these values is the CATMoS acute toxicity set (Mansouri et al. 2021).
